Data from ChEMBL document CHEMBL1157055, “Limonoids and tirucallane derivatives from the seeds of a krishna mangrove, Xylocarpus moluccensis” (2010).
Activity calls are given as the source filed them. No cut-off for these calls is given here.

What was measured:
Brontispa longissima [1] = experiment: Insecticidal activity against Brontispa longissima Gestro at 100 ug/ml after 96 hrs; type: functional
Brontispa longissima [2] = experiment: Insecticidal activity against Brontispa longissima Gestro at 100 ug/ml after 72 hrs; type: functional
Brontispa longissima [3] = experiment: Insecticidal activity against Brontispa longissima Gestro at 100 ug/ml; type: functional, organism-based

Row | SMILES | Activity (Brontispa longissima [1]) [%] | Activity (Brontispa longissima [2]) [%] | Activity (Brontispa longissima [3])
1 | CC[C@H](C)C(=O)O[C@@]12C[C@]3(C)[C@H](OC(=O)C(C)C)[C@]1(O)C(=O)C1=C(CC[C@]4(C)C1=CC(=O)O[C@H]4c1ccoc1)[C@]2(C)[C@H]3CC(=O)OC [MOLUCCENSINS H] | 27.6 | 20.7 | 
2 | CC[C@H](C)C(=O)O[C@@]12C(=O)C3=C4CC(=O)O[C@@H](c5ccoc5)[C@]4(C)CC[C@@H]3[C@]3(C)[C@@H](CC(=O)OC)[C@](C)(C[C@@]31O)[C@@H]2OC(=O)C(C)C |  |  | inactive
3 | CC[C@H](C)C(=O)O[C@@]12C(=O)C3=C(CC[C@]4(C)C3=CC(=O)O[C@H]4c3ccoc3)[C@]3(C)[C@@H](CC(=O)OC)[C@](C)(C[C@]13O)[C@@H]2OC(=O)C(C)C |  |  | inactive
4 | CC[C@H](C)C(=O)O[C@H]1[C@@]2(C)C[C@@]3(OC(=O)[C@@H](C)CC)[C@](C)([C@H]4CC[C@]5(C)C(=C4C(=O)[C@@]13O)CC(=O)O[C@H]5c1ccoc1)[C@H]2CC(=O)OC |  |  | inactive
